According to article PMC12133982, “Predominant T-cell epitopes of SARS-CoV-2 restricted by multiple prevalent HLA-B and HLA-C allotypes in Northeast Asia” (Frontiers in Immunology, 2025):
Like-named read-outs stand apart in the source and are kept apart here. Peptide text beside a SMILES is read from it.

How the values were obtained:
[1] = target: HLA-C0102 (Homo sapiens, UniProt P10321, A176E/A330V/A35S/A97T/C350S/D114A/D33F/L171W/L180R/L218V/M285V/M309V/M331V/P208H/Q277E/Q291P/R121W/R243W/R30K/S123C/S140Y/S297R/T329A/T363A/V272M/V319A); assay: Competitive peptide binding assay, CIR-C0102; details: for inhibition at 5 µM / inhibition at 15 µM: read-out: Inhibition % of Cy5-reference peptide binding
Experimental: (§1) Then, competitive peptide binding assays were performed.

[2] = target: HLA-C0302 (Homo sapiens, UniProt P10321, A176E/A330V/A97T/C25G/C350S/D114A/D33Y/E197K/L127V/L171W/L218V/M285V/M309V/M331V/P208H/Q277E/Q291P/R243W/R45H/S123Y/S297R/S48A/T118I/T187L/T329A/T363A/V319A); assay: Competitive peptide binding assay, CIR-C0302; details: HMy2.CIR-C0302 cells, reference Cy5-[…], class from inhibition at 5 and 15 μM, flow cytometry MFI; read-out: Binding affinity with HLA-C0302
Experimental: as §1

[3] = target: HLA-C0401 (Homo sapiens, UniProt P10321, A176E/A330V/A35S/A73E/C25G/C350S/D138N/D33S/E299K/L171W/L180R/L218V/M285V/M309V/M331V/N104K/P208H/Q277E/Q291P/R243W/R38W/S101N/S123F/S140F/S297R/S48A/T329A/T363A/V319A/V327M); assay: Competitive peptide binding assay, CIR-C0401; details: HMy2.CIR-C0401 cells, reference Cy5-[…], class from inhibition at 5 and 15 μM, flow cytometry MFI; read-out: Binding affinity with HLA-C0401
Experimental: as §1

[4] = target: HLA-C0602 (Homo sapiens, UniProt P10321, A176E/A330V/C350S/L171W/L180W/L218V/M285V/M309V/M331V/N104K/P208H/Q277E/Q291P/R121W/S101N/S123Y/S297R/T329A/T363A/V319A/V328M); assay: Competitive peptide binding assay, CIR-C0602
[5] = target: HLA-C0702 (Homo sapiens, UniProt P10321); assay: Competitive peptide binding assay, CIR-C0702
[6] = target: HLA-C0801 (Homo sapiens, UniProt P10321, A176T/A330V/A97T/C350S/D114A/D138N/D33Y/E201K/E299G/L171W/L218V/M285V/M309V/M331V/P208H/Q277E/Q291P/R59Q/S123Y/S140F/S297R/S48A/T329A/T363A/V319A/V328M); assay: Competitive peptide binding assay, CIR-C0801; details: HMy2.CIR-C0801 cells, reference Cy5-[…], class from inhibition at 5 and 15 μM, flow cytometry MFI; read-out: Binding affinity with HLA-C0801
Experimental: as §1

[7] = target: HLA-C0304 (Homo sapiens, UniProt P10321, A176E/A330V/A97T/C25G/C350S/D114A/D33Y/E197K/L119I/L127V/L171W/L218V/M285V/M309V/M331V/P208H/Q277E/Q291P/R243W/R45H/S123Y/S140Y/S297R/S48A/T118I/T187L/T329A/T363A/V319A); assay: Competitive peptide binding assay, CIR-C0304; details: HMy2.CIR-C0304 cells, reference Cy5-[…], class from inhibition at 5 and 15 μM, flow cytometry MFI; read-out: Binding affinity with HLA-C0304
Experimental: as §1

[8] = HMy2.CIR-C0102 cells, reference Cy5-[…], class from inhibition at 5 and 15 μM, flow cytometry MFI, read-out: Binding affinity with HLA-C0102

Compound | IC50 [1, 8] [µM] | inhibition at 5 µM [1] [%] | inhibition at 15 µM [1] [%] | IC50 [2] [µM] | IC50 [3] [µM] | IC50 [4] [µM] | IC50 [5] [µM] | IC50 [6] [µM] | IC50 [7] [µM] | IC50 [1] [µM]
C[C@H](NC(=O)[C@H](CO)NC(=O)[C@H](C)NC(=O)[C@H](CO)NC(=O)[C@@H]1CCCN1C(=O)[C@H](C)NC(=O)[C@@H](N)Cc1ccccc1)C(=O)N[C@@H](Cc1ccccc1)C(=O)N[C@@H](Cc1ccccc1)C(=O)O [Epitope M16] (H-FAPSASAFF-OH; N-terminus and C-terminus assumed) | 5 to 15 | 37 | 81.4 | < 5 | 5 to 15 | > 15 | > 15 | – | – | –
CC(C)C[C@H](NC(=O)[C@@H](NC(=O)[C@@H](NC(=O)CNC(=O)[C@H](CCC(N)=O)NC(=O)[C@@H]1CCCN1C(=O)[C@H](CC(C)C)NC(=O)[C@H](CCC(N)=O)NC(=O)[C@H](CC(C)C)NC(=O)[C@@H](N)C(C)C)[C@@H](C)O)[C@@H](C)O)C(=O)O [Epitope M18] (H-VLQLPQGTTL-OH; N-terminus and C-terminus assumed) | 5 to 15 | – | – | – | – | > 15 | – | > 15 | > 15 | –
CSCC[C@H](NC(=O)[C@H](CO)NC(=O)[C@H](Cc1ccccc1)NC(=O)[C@H](Cc1c[nH]cn1)NC(=O)[C@H](CCCCN)NC(=O)[C@H](CCCNC(=N)N)NC(=O)[C@H](CC(C)C)NC(=O)[C@H](Cc1ccc(O)cc1)NC(=O)[C@H](C)NC(=O)[C@@H](N)Cc1ccc(O)cc1)C(=O)O [Epitope M26] (H-YAYLRKHFSM-OH; N-terminus and C-terminus assumed) | – | 8.9 | 33.9 | 5 to 15 | – | > 15 | > 15 | – | 5 to 15 | > 15
CC[C@H](C)[C@H](NC(=O)[C@H](CCCNC(=N)N)NC(=O)[C@H](CC(C)C)NC(=O)[C@H](CCSC)NC(=O)[C@H](CC(N)=O)NC(=O)[C@@H]1CCCN1C(=O)[C@H](CCSC)NC(=O)[C@H](C)NC(=O)[C@@H](N)CCCNC(=N)N)C(=O)O [Epitope M30] (H-RAMPNMLRI-OH; N-terminus and C-terminus assumed) | 5 to 15 | – | – | – | > 15 | < 5 | > 15 | > 15 | – | –
CC(C)C[C@H](NC(=O)[C@H](C)NC(=O)[C@H](C)NC(=O)CNC(=O)[C@H](C)NC(=O)CNC(=O)[C@H](Cc1ccccc1)NC(=O)[C@@H](NC(=O)[C@@H](N)Cc1c[nH]c2ccccc12)[C@@H](C)O)C(=O)O [Epitope M33, WTFGAGAAL] (H-WTFGAGAAL-OH; N-terminus and C-terminus assumed) | – | – | – | 5 to 15 | – | – | – | – | > 15 | –
CC[C@H](C)[C@H](NC(=O)[C@@H]1CCCN1C(=O)[C@@H](NC(=O)[C@H](Cc1c[nH]cn1)NC(=O)[C@H](CCCCN)NC(=O)[C@H](CO)NC(=O)[C@H](Cc1ccc(O)cc1)NC(=O)[C@@H](NC(=O)[C@@H](N)CCCCN)[C@@H](C)CC)[C@@H](C)O)C(=O)O [Epitope M34] (H-KIYSKHTPI-OH; N-terminus and C-terminus assumed) | < 5 | 77.4 | 91.2 | > 15 | 5 to 15 | – | – | – | > 15 | –
CC[C@H](C)[C@H](NC(=O)[C@@H](NC(=O)CNC(=O)[C@H](CC(N)=O)NC(=O)[C@H](CO)NC(=O)[C@H](CC(=O)O)NC(=O)[C@H](C)NC(=O)[C@@H](N)CCSC)[C@@H](C)O)C(=O)N[C@H](C(=O)N[C@H](C(=O)O)C(C)C)[C@@H](C)O [Epitope M48] (H-MADSNGTITV-OH; N-terminus and C-terminus assumed) | > 15 | – | – | – | – | > 15 | – | – | 5 to 15 | –
CC[C@H](C)[C@H](NC(=O)[C@H](CCC(N)=O)NC(=O)[C@H](CC(C)C)NC(=O)[C@H](C)NC(=O)[C@H](C)N)C(=O)N1CCC[C@H]1C(=O)N[C@@H](Cc1ccccc1)C(=O)N[C@@H](C)C(=O)N[C@@H](CCSC)C(=O)O [Epitope M66] (H-AALQIPFAM-OH; N-terminus and C-terminus assumed) | – | – | – | – | – | 5 to 15 | – | – | < 5 | –
CC(C)C[C@H](NC(=O)[C@@H](NC(=O)[C@H](CCCNC(=N)N)NC(=O)[C@H](CO)NC(=O)[C@@H](NC(=O)[C@H](C)NC(=O)[C@@H](N)C(C)C)[C@@H](C)O)[C@@H](C)O)C(=O)N[C@@H](CO)C(=O)N[C@@H](Cc1ccc(O)cc1)C(=O)O [Epitope M72] (H-VATSRTLSY-OH; N-terminus and C-terminus assumed) | – | – | – | > 15 | > 15 | – | > 15 | < 5 | > 15 | –
C[C@@H](O)[C@H](NC(=O)[C@H](CCC(N)=O)NC(=O)[C@H](CC(=O)O)NC(=O)[C@H](Cc1c[nH]c2ccccc12)NC(=O)[C@H](Cc1ccc(O)cc1)NC(=O)[C@H](CCCCN)NC(=O)[C@H](Cc1ccccc1)NC(=O)[C@@H](N)Cc1ccc(O)cc1)C(=O)N[C@@H](Cc1ccc(O)cc1)C(=O)O [Epitope M122] (H-YFKYWDQTY-OH; N-terminus and C-terminus assumed) | > 15 | – | – | > 15 | – | > 15 | 5 to 15 | – | > 15 | –
